According to article PMC6104695 (Virulence, 2017):
≈ marks a conversion by molar mass, not a printed value. Where “and” joins values, the source holds several entries; their conditions need not be identical. Equal values may be shown once. Ends that are not written are not given here. Peptide text beside a SMILES is read from it.

What was measured:
B. anthracis = conditions: mouse, in vivo, sc; cited from earlier work
[1] = tested on: B. anthracis Sterne vegetative bacteria; conditions: 24 h
[2] = tested on: B. anthracis Sterne spores; assay: microbe, parasite or virus in culture; conditions: Bacillus anthracis, 3 h, pH 7.4, read-out: Sporicidal EC50 (95% Confidence Interval)
[3] = tested on: B. anthracis Sterne spores; design: species or system Galleria mellonella; conditions: in vivo

| Molecule | MIC [1] [µM] | also measured |
| --- | --- | --- |
| CC(C)C[C@H](NC(=O)[C@H](CCCNC(=N)N)NC(=O)CNC(=O)CNC(=O)[C@@H](N)CCCNC(=N)N)C(=O)N[C@@H](CS)C(=O)N[C@@H](Cc1ccc(O)cc1)C(=O)N[C@@H](CS)C(=O)N[C@@H](CCCNC(=N)N)C(=O)N[C@@H](CCCNC(=N)N)C(=O)N[C@@H](CCCNC(=N)N)C(=O)N[C@@H](Cc1ccccc1)C(=O)N[C@@H](CS)C(=O)N[C@H](C(=O)N[C@@H](CS)C(=O)N[C@H](C(=O)NCC(=O)N[C@@H](CCCNC(=N)N)C(=O)O)C(C)C)C(C)C [PG-1] (H-RGGRLCYCRRRFCVCVGR-OH; N-terminus and C-terminus assumed) | 7.41 (≈ 16 µg/mL) | Survival of infected mice (B. anthracis): 80% |
| CC[C@H](C)[C@H](NC(=O)[C@H](CCCCN)NC(=O)[C@H](CCC(=O)O)NC(=O)[C@H](CCCCN)NC(=O)[C@H](CO)NC(=O)[C@H](CCCCN)NC(=O)[C@H](CCCNC(=N)N)NC(=O)[C@H](Cc1ccccc1)NC(=O)[C@H](Cc1ccccc1)NC(=O)[C@H](CC(=O)O)NC(=O)CNC(=O)[C@H](CC(C)C)NC(=O)[C@@H](N)CC(C)C)C(=O)NCC(=O)N[C@@H](CCCCN)C(=O)N[C@@H](CCC(=O)O)C(=O)N[C@@H](Cc1ccccc1)C(=O)N[C@@H](CCCCN)C(=O)N[C@@H](CCCNC(=N)N)C(=O)N[C@H](C(=O)N[C@H](C(=O)N[C@@H](CCC(N)=O)C(=O)N[C@@H](CCCNC(=N)N)C(=O)N[C@H](C(=O)N[C@@H](CCCCN)C(=O)N[C@@H](CC(=O)O)C(=O)N[C@@H](Cc1ccccc1)C(=O)N[C@@H](CC(C)C)C(=O)N[C@@H](CCCNC(=N)N)C(=O)N[C@@H](CC(N)=O)C(=O)N[C@@H](CC(C)C)C(=O)N[C@H](C(=O)N1CCC[C@H]1C(=O)N[C@@H](CCCNC(=N)N)C(=O)N[C@H](C(=O)N[C@@H](CCC(=O)O)C(=O)N[C@@H](CO)C(=O)O)[C@@H](C)O)C(C)C)[C@@H](C)CC)C(C)C)[C@@H](C)CC [LL-37] | 7.12 (≈ 32 µg/mL) | – |
| GLLRKGGEKIGEKLKKIGQKIKNFFQKLVPQPEQ [mCRAMP] | 16.5 | – |
| O=C(O)c1cn(C2CC2)c2cc(N3CCNCC3)c(F)cc2c1=O [Ciprofloxacin] | – | EC50 [2]: 70.8 µg/mL and > 100 µM; Rescue of infected waxworms by ciprofloxacin [3]: 100%; Survival (%) of B. anthracis infected G. mellonella larvae [3]: 100% |
| GLKLRFEFSKIKGEFLKTPEVRFRDIKLKDNRISVQR [Scrambled LL-37] | >150 | – |
